Residues, ends and D or L forms follow the SMILES beside them.
What was measured:
081024 cells = test: BME cell invasion assay, 081024; assay type: cell-based, human; settings: 24 h
Experimental: To assess whether the ability of SEQ ID NO.1 to inhibit MMP-2 activity and, to a lesser extent, reduce the production of matrix proteinases and downregulate the expression of EMT markers, was of functional consequence in reducing the invasiveness of the GBM cells, the ability of the peptide was tested at the concentrations of 1, 10 and 100 μM (none of which are toxic to cells) to inhibit invasion of the GBM cells through a basement membrane. This assay, described in more detail below, is an in vitro surrogate for measurement of the in vivo invasion by tumour cells of their environment.
The cell invasion assay employs a simplified Boyden chamber-like design that consists of two chambers separated by a filter (an 8 μm polycarbonate (PC) membrane) coated with basement membrane or different extracellular matrix components. The cell suspension is placed in the top chamber and incubated in the presence of test media containing specific chemo-attractants in the bottom chamber. Cells migrate from the top chamber to the bottom of the filter by degrading the coating over the filter pores. Detection of cell invasion is quantified using Calcein AM. Cell dissociation/Calcein AM solution is placed in the bottom chamber to dissociate the migrating cells from the filter. Calcein AM is internalized by the cells, and intracellular-esterases cleave the aceto-methylester (AM) moiety. Free Calcein fluoresces brightly and is used to quantitate the number of cells that have invaded or migrated by comparison with a standard curve (In Vitro Technologies Pty Ltd, (https://lifescience.invitro.com.au/brands/r-and-d-systems/).
The filter was coated with PathClear® growth factor reduced BME. The selected peptides were applied to the cells in both upper and lower wells to make sure the concentration of peptides were the same and the chemoattractant was serum at a concentration of 2% (for adherent U87 & U251 cells) or growth factor mix required in the medium (for non- adherent, 081024 oncospheres).
Cell invasion was determined using CultureCoat® 96 Well Medium BME Cell Invasion assay. Briefly, the cells were pre-starved 24 h before harvest. Then seeding 25,000 per well of cell in the upper chamber with serum free medium together different concentration of peptide. The bottom chamber also added different concentration of peptides with 2% (V/V) serum for GBM adherent cells or growth factor mix for neurosphere cells as chemoattractant. After 24 h incubation, the invading cells were measured by Calcein AM and calculated based on standard curve.
The results are shown in Table 12, the results are expressed as % inhibition.

uPA = test: Casein-plasminogen zymography of conditioned media, uPA production; assay type: cell-based, human; settings: for uPA production: compared to control containing no peptide
Excerpt: To assess whether the peptide SEQ ID NO.1 impacted MMP-2, MMP-9 and uPA production Zymography was used.
Zymography is a technique for studying hydrolytic enzymes on the basis of substrate degradation. The in-gel zymography hydrolytic enzymes are separated by their molecular weights and detected by their ability to degrade a substrate. To detect the activity of MMP-2 and MMP-9 in various cell lines, conditioned media were collected in 3 independent experiments and analysed by gelatin zymography to quantify the level of gelatin digestion, which reflects MMP-2 and MMP-9 activity and production. Casein-Plasminogen zymography was conducted to determine the activity level of uPA in the conditioned medium from various cell lines. Active uPA converts plasminogen into plasmin which then digests casein, thus clear bands where digestion of casein have occurred indirectly represent uPA activity.
The effect of the peptides on matrix protease production was tested using in-gel zymography. If the substrate included in the gel is gelatin, the enzymes detected are gelatinases: MMP-2 and MMP-9 (the latter is often of low abundance). If the gel contains casein and plasminogen, the enzymes tested are urokinase plasminogen activators (uPA); uPA is a therapeutic target in GBM.
An equal amount of protein from each sample was mixed with 5 μL of Laemmli buffer (0.01% Bromophenol Blue (W/V), 5% SDS (W/V), 22% glycerol (V/V), 14% 0.5 M Tris pH 6.8 (V/V)) and loaded onto a 10% polyacrylamide gel co-polymerized with 1 mg/ml of gelatin, and electrophoresed at 120 V for 2 hours on ice. The gel was incubated in […] solution (Triton X-100 2.5% (V/V), 1 M Tris pH 7.5 5% (V/V), 0.5 M CaCl2 1% (W/V) at room temperature overnight on an orbital shaker. The gel was incubated in a second solution for 3 hours at 37° C. The gel was then stained with Coomassie blue solution (Coomassie blue 0.25%, methanol 45%, acetic acid 10%) and destained in methanol 25% (V/V), acetic acid 10% (V/V) destaining solution until clear bands against the dark background appeared around 72 kDa and 95 kDa, representing MMP-2 and MMP-9 activity, respectively. Clear bands around 50 kDa appeared against the dark background representing uPA activity. The gels were scanned, and uPA, MMP-2 and MMP-9 were quantified by densitometry using NIH Image J software.
SEQ ID NO.1 was compared to a control containing no peptide to evaluate whether the peptide can reduce the production of matrix proteinases. […] This could be confirmed using a MMP-9 quantification kit, and altered production by a transcriptional mechanism can be unveiled using qRT-PCR.

Q: For `CC(C)C[C@@H]1NC(=O)[C@H](C)NC(=O)[C@@H](NC(=O)[C@@H]2CCCN2C(=O)[C@@H](N)CC(C)C)CSSC(C)(C)CNC(=O)CC[C@@H](C(=O)N[C@@H](CCCNC(=N)N)C(N)=O)NC(=O)[C@H](CC(=O)O)NC(=O)[C@H](CC(N)=O)NC1=O` [SEQ ID NO: 1, Leu-Pro-c(SSA*-Ala-Leu-Asn-Asp-Glu)-Arg-NH2] (HELM PEPTIDE1{L.P.C.A.L.N.D.E.R.[am]}|CHEM1{[CC(C)(CN[*:2])S[*:1]]}$PEPTIDE1,CHEM1,3:R3-1:R1|PEPTIDE1,CHEM1,8:R3-1:R2$$$V2.0; N-terminus assumed), which “Invasion Inhibition Index (%)” value (081024 cells; 1 μM, listed as SEQ ID NO. 1) is on record?
A: 39.9%

Q: And the “Invasion Inhibition Index (%)” value (081024 cells; 1 μM, listed as SEQ ID NO.1)?
A: fairly comparable to that of Chlorotoxin

Q: And the “Invasion Inhibition Index (%)” value (081024 cells; 10 μM)?
A: 50.8%

Q: What about the “Invasion Inhibition Index (%)” value (081024 cells; 100 μM) of the same compound?
A: 58.3%

Q: What about the uPA production (uPA; 081024 cells) of the same compound?
A: 96.43 ± 16.6

Q: And the uPA production (uPA; U87 cells)?
A: 89.03 ± 5.98

Q: And the uPA production (uPA; U251 cells)?
A: 79.92 ± 8.86

Q: And the “production of uPA (overall, in words)” value (uPA; overall, all cell lines, cell-conditioned media)?
A: did not decrease
